“Also recorded” adds a separate entry of the source. Like-named read-outs stand apart in the source and are kept apart here.
Assays:
lactate dehydrogenase = test: Determination of inactive E.RAP enzyme complex; format: biochemical, rat; conditions: 2 μM initial concentration
[1] = target: T1, beef liver glutamate dehydrogenase (Bos taurus, UniProt P00366); test: Commercial glutamate dehydrogenase with RAP; format: biochemical; conditions: 20 μM RAP
T1 construct: purchased Boehringer Mannheim Corp. (Indianapolis); host or cells: beef liver
T1 sequence (P00366 58-558): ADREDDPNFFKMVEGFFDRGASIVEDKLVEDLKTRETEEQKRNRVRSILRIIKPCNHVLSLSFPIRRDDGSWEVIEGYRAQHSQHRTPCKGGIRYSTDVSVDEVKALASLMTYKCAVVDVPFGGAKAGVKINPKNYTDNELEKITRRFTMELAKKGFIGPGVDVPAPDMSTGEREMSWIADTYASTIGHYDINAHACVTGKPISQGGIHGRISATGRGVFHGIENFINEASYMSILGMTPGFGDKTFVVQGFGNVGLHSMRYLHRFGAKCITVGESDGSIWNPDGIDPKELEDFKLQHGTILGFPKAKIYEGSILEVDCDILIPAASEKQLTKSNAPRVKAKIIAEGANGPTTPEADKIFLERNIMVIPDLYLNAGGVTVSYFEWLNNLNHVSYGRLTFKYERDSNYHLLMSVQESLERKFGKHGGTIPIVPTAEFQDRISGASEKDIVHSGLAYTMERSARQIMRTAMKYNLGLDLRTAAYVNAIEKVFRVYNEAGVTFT
Description: (§1) Enzymes and enzyme assays. Rabbit muscle glyceraldehyde-3-phosphate dehydrogenase (80 U/mg: ammonium sulfate suspension), rabbit muscle glycerol-3-phosphate dehydrogenase (40 U/mg; ammonium sulfate suspension),beef liver glutamate dehydrogenase (120 U/mg: in 50% glycerol), mitochondrial pig heart malate dehydrogenase (1100 U/mg; in 50% glycerol) and yeast hexokinase (140 U/mg; ammonium sulfate suspension) were purchased from Boehringer Mannheim Corp. (Indianapolis). Beef heart lactate dehydrogenase (280 U/mg) was purchased from Worthington Biochemical Corporation (Freehold, N.J.). Porcine heart L-alanine aminotransferase (130 U/mg), rabbit muscle phosphofructokinase (140 U/mg; ammonium sulfate suspension), bovine heart α-ketoglutarate (8 U/mg) and pyruvate (5 U/mg) dehydrogenase complexes, sodium pyruvate, L-methionine-SR-sulfoximine, DL-vinylglycine, NAD^+, NADH and NAD^+ analogues (3-acetylpyridine, thionicotinamide, and 3-pyridinealdehyde adenine dinucleotides) were purchased from Sigma Chemical Company (St. Louis, Mo.).
(§2) Each of the enzymes was assayed by procedures in which change of absorbance at 340 nm due to NADH was followed essentially as described by Bergmeyer (1974, Methods of Enzymatic Analysis, 2nd Eng. Ed., Verlag Chemie Weinheim Academic Press, N.Y.) with the following exceptions. […]

[2] = system: lactate production from D-glucose in synaptosomes; test: Lactate production from D-glucose in rat brain synaptosomes; format: cell-based
Description: (§3) FIG. 2 is a graphic presentation of inhibition of lactate production from D-glucose by rat brain postnuclear supernatant fraction and by synaptosoms incubated with RAP. Lactate production was determined for a 20-min incubation at 37° C. Values (expressed as % of the control rate) are mean±SD of 3-6 determinations. The control value was 8.1±0.9 nmol of lactate produced/min/mg protein, *P<0.05, **P<0.03 and ***P<0.005vs. control values.
(§4) Postnuclear supernatant fraction (containing the glycolytic enzymes) was prepared from rat brain according to the method of Lai et al (1984, supra). Rat brain synaptosomes were prepared according to the method of Lai et al (1980, Biochem. Pharmacol., 29:141-146). Lactate generated by these preparations in the presence of D-glucose was measured with lactate dehydrogenase as described by Lai et al (1984, supra), except that the concentrations of sodium phosphate buffer and nicotinamide used in the medium were respectively 5 and 20 mM. (In some cases where there was a carry over of appreciable RAP to the assay mix, ten times the recommended amount of lactate dehydrogenase was used and the effectiveness of the enzyme in converting lactate to pyruvate was checked by addition of lactate standards to the cuvette after the initial reaction was over).

[3] = target: T2, cytosolic malate dehydrogenase (Rattus norvegicus, UniProt O88989); test: Rat brain cytosolic (soluble) malate dehydrogenase with RAP; format: biochemical; conditions: 20 μM RAP
T2 construct: following enzymes in rat brain subcellular fractions: α-ketoglutarate, isocitrate and cytosolic malate dehydrogenases; from tissue; host or cells: rat brain subcellular fractions
T2 sequence (O88989 whole entry): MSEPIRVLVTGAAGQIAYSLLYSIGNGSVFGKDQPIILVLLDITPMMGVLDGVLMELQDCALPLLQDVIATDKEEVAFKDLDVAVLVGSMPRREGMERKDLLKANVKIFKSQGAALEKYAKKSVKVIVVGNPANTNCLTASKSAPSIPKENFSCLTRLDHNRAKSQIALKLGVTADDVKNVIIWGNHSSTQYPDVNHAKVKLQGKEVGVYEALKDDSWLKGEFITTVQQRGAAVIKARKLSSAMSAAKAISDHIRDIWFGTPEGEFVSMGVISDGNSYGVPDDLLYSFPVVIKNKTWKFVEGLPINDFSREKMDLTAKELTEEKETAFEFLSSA
Description: (§5) Each of the enzymes was assayed by procedures in which change of absorbance at 340 nm due to NADH was followed essentially as described by Bergmeyer (1974, Methods of Enzymatic Analysis, 2nd Eng. Ed., Verlag Chemie Weinheim Academic Press, N.Y.) with the following exceptions. Phosphofructokinase was assayed according to the method of Lai et al (1984, J. Neurochem., 42:438-446). NAD^+ -linked isocitrate dehydrogenase was assayed as described by Lai and Clark (1976, Biochem. J., 154:423-432). Pyruvate and α-ketoglutarate dehydrogenase complexes were respectively assayed according to the methods of Lai and Sheu (1985, J. Neurochem., 45:1861-1868) and Lai and Cooper (1986) (J. Neurochem, 47:1376-1386).

[4] = target: T3, beef heart lactate dehydrogenase (Bos taurus, UniProt Q5E9B1); test: Inhibition of beef heart lactate dehydrogenase (NADH absorbance at 340 nm); format: biochemical, bovine; conditions: for Relative Activity (%) Beef Heart: 0.24 mM pyruvate, 0.1 mM NADH, pH 7.2, 25° C.
T3 construct: purchased Worthington Biochemical Corporation (Freehold, N.J.); host or cells: beef heart
T3 sequence (Q5E9B1 whole entry): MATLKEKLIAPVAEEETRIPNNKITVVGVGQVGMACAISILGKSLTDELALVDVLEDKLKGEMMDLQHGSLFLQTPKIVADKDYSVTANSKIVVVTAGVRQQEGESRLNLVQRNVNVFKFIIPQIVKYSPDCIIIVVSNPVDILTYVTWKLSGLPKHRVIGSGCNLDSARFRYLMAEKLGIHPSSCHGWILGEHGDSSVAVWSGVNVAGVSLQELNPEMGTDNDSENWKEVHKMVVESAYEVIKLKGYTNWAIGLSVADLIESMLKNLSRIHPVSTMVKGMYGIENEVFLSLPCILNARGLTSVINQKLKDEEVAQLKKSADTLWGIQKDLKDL
Description: as §1, §5
(§6) The reaction mixture (1 ml) contained 0.24 mM sodium pyruvate, 0.1 mM
(§7) NADH, 100 mM potassium phosphate buffer (pH 7.2) and either purified
(§8) bovine heart lactate dehydrogenase (0.01 U) or rat brain homogenate
(§9) containing ~0.02 U of lactate dehydrogenase activity; 25° C.
(§10) Since APADpyruvate adduct and RAP have a tendency to revert to pyruvate
(§11) they were added to the reaction mixture just prior to addition of enzyme.
(§12) Because the kinetics obtained with tightbinding inhibitors depends on the
(§13) order of addition of substrates and inhibitors the enzyme was always adde
(§14) last. Each value is the average of at least 3 determinations. Each of the […]

isocitrate dehydrogenase = target: T4, isocitrate dehydrogenase (Rattus norvegicus, UniProt Q99NA5); test: Rat brain isocitrate dehydrogenase with RAP; format: biochemical; conditions: 20 μM RAP
T4 construct: following enzymes in rat brain subcellular fractions: α-ketoglutarate, isocitrate; from tissue; host or cells: rat brain subcellular fractions
T4 sequence (Q99NA5 28-366): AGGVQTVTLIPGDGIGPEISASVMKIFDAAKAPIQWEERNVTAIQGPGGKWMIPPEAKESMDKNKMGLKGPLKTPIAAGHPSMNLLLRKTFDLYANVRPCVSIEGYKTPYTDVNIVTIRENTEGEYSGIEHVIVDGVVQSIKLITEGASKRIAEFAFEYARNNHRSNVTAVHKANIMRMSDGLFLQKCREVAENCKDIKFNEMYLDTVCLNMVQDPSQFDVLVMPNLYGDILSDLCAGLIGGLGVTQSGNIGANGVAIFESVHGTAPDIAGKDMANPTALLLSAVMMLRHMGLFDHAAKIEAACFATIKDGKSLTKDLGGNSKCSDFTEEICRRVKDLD
T4 sequence (Q68FX0 35-385 partner): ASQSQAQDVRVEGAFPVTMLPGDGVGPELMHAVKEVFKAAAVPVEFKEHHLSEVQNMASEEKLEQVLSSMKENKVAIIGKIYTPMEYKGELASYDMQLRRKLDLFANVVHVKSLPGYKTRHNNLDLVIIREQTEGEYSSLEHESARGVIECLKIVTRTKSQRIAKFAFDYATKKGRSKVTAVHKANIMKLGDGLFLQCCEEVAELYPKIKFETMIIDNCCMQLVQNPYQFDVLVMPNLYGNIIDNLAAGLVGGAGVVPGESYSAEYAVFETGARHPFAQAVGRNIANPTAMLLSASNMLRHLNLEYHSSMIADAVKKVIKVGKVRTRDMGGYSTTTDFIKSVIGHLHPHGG
T4 sequence (P41565 40-393 partner): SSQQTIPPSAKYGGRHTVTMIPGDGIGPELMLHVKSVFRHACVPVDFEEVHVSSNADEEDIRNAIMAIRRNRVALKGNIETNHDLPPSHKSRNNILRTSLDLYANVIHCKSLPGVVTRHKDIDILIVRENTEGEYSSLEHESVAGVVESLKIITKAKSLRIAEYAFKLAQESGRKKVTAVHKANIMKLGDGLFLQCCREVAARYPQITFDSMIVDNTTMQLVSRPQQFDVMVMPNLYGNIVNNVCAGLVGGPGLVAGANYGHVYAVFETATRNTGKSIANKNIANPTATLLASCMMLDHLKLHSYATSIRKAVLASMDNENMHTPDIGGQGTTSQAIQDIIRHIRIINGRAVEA
Description: as §5

[5] = target: T5, bovine heart pyruvate dehydrogenase complex (Bos taurus, UniProt A7MB35+F1N206+P11966); test: Purified bovine heart pyruvate dehydrogenase complex with RAP; format: biochemical; conditions: 20 μM RAP
T5 construct: overall NADH-forming activity assayed at 340 nm
Description: as §1, §2

[6] = target: rat brain lactate dehydrogenase; test: Inhibition of rat brain lactate dehydrogenase (rat brain homogenate); format: biochemical; conditions: in the presence of either 0.2 or 2 mM pyruvate and 0.1 mM NADH
phosphofructokinase = test: Rat brain phosphofructokinase with RAP; format: biochemical; conditions: 20 μM RAP
Description: as §5

[7] = system: lactate production from D-glucose in rat brain postnuclear supernatant fraction; test: Lactate production from D-glucose in rat brain postnuclear supernatants; format: biochemical
Description: as §3, §4

[8] = target: T6, α-ketoglutarate dehydrogenase (Rattus norvegicus, UniProt Q5XI78+Q6P6R2); test: Rat brain α-ketoglutarate dehydrogenase with RAP; format: biochemical; conditions: 20 μM RAP
T6 construct: following enzymes in rat brain subcellular fractions: α-ketoglutarate; from tissue; host or cells: rat brain subcellular fractions
T6 sequence (Q5XI78 41-1023): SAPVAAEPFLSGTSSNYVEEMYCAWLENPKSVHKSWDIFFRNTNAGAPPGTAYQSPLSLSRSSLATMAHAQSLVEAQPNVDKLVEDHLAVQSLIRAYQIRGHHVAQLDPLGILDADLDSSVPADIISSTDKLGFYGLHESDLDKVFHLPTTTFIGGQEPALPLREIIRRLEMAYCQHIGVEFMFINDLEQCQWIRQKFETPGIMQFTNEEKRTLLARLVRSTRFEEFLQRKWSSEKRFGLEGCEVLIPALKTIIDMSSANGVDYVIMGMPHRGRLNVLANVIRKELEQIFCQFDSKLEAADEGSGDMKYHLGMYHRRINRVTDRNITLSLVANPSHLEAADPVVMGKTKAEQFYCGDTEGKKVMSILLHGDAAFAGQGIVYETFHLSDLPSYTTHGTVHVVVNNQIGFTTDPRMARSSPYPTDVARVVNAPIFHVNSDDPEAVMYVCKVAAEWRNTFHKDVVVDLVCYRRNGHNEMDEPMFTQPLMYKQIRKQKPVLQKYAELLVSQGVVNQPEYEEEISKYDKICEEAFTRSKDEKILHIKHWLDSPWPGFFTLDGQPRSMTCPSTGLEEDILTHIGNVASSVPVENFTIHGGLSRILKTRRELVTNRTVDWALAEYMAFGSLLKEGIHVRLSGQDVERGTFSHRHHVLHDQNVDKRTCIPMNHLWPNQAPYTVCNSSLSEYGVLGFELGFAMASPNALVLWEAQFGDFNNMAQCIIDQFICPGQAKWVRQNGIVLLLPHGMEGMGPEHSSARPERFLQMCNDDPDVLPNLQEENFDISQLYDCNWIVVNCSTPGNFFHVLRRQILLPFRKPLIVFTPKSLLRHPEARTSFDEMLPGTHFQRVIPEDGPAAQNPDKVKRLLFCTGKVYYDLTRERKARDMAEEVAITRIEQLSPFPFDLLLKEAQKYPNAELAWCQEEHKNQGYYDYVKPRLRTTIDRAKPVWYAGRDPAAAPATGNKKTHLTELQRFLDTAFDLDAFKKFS
T6 sequence (Q01205 69-454 partner): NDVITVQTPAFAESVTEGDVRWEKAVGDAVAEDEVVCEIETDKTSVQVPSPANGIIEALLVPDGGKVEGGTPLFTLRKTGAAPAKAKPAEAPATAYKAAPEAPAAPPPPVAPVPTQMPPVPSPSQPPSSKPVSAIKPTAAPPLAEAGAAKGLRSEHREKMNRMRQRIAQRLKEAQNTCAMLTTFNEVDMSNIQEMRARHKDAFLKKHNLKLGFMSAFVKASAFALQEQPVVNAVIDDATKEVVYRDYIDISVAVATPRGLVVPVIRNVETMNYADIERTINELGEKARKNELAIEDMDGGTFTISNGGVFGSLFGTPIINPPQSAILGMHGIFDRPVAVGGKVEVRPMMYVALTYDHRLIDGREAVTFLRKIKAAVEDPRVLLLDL
T6 sequence (Q6P6R2 36-509): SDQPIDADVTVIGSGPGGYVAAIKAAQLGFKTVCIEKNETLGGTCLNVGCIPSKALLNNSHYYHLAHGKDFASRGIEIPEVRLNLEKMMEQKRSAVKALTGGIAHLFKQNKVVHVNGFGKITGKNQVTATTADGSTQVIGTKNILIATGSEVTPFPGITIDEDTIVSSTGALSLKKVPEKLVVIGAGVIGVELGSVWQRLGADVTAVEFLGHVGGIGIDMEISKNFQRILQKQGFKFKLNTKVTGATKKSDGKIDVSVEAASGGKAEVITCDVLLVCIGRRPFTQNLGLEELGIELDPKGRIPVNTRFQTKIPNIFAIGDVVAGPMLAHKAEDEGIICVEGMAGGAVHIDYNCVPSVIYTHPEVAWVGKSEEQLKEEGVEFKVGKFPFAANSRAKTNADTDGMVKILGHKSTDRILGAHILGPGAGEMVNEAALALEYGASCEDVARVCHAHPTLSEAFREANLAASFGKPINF
Description: as §5

[9] = system: rat brain lactate dehydrogenase; test: Inhibition of rat brain lactate dehydrogenase (rat brain homogenate); format: biochemical; conditions: for Relative Activity (%) Rat Brain: rat brain homogenate, 0.24 mM pyruvate, 0.1 mM NADH, pH 7.2, 25° C.
Description: as §5, §6, §7, §8, §9, §10, §11, §12, §13, §14

Nc1ncnc2c1ncn2[C@@H]1O[C@H](COP(=O)(O)OP(=O)(O)OC[C@H]2O[C@@H](N3C=CC(CC(=O)C(=O)O)C(C=O)=C3)[C@H](O)[C@@H]2O)[C@@H](O)[C@H]1O (some centres unmarked) [RAP, 3(-4-(reduced 3-pyridinealdehyde-adeninedinucleotide))-pyruvate]
enzyme tied up as the inactive E.RAP complex (lactate dehydrogenase): approximately 90%
inhibition at 20 µM [1]: ≤ 20%
inhibition of lactate production from glucose in synaptosomes compared with rat brain extracts [2]: less effective
inhibition of lactate production in synaptosomes ([2]; initial concentrations of 250-500 μM): 15-30%
effect on rat brain cytosolic (soluble) malate dehydrogenase [3]: little or no effect; also recorded: did not inhibit
Ki ([4]; Ki for the A form, A isomer at the 4 position, taken as half of the mixture, calculated from Table 1 data): 0.0013 µM
Ki ([4]; Ki, calculated from Table 1 data with Km for NADH 2.5 μM, standard equation for a competitive inhibitor): 0.0026 µM
Relative Activity (%) Beef Heart ([4]; additive 42 nM): 79%
Relative Activity (%) Beef Heart ([4]; additive 84 nM): 58%
Relative Activity (%) Beef Heart ([4]; additive 132 nM): 40%
Relative Activity (%) Beef Heart ([4]; additive 180 nM): 29%
potency as inhibitor of lactate dehydrogenase relative to the NAD-pyruvate adduct ([4]; from Table 1): ~ 1000 fold
type of inhibition with respect to pyruvate ([4]; suggested by the 2.4 mM pyruvate finding): noncompetitive inhibitor with respect to pyruvate
effect on rat brain isocitrate dehydrogenase (isocitrate dehydrogenase): little or no effect; also recorded: did not inhibit
effect on purified bovine heart pyruvate dehydrogenase complex [5]: nor did 20 μM RAP inhibit
IC50 [6]: ~0.1 µM
effect on rat brain phosphofructokinase (phosphofructokinase): similarly unaffected
inhibition of lactate production from glucose in rat brain extracts [7]: strongly inhibited
concentrations at which lactate production is inhibited in a concentration-dependent manner ([7]; rat brain postnuclear supernatants, D-glucose): higher than 200 nM
IC50 ([7]; rat brain postnuclear supernatants, D-glucose, 20-min incubation at 37° C., true concentration lower since RAP dissociates, read-out: formal "concentration" required to inhibit lactate production by 50%): 1 to 9 µM
effect on rat brain α-ketoglutarate dehydrogenase [8]: little or no effect; also recorded: did not inhibit
Relative Activity (%) Rat Brain ([9]; additive 42 nM): 80%
Relative Activity (%) Rat Brain ([9]; additive 84 nM): 56%
Relative Activity (%) Rat Brain ([9]; additive 132 nM): 43%
Relative Activity (%) Rat Brain ([9]; additive 180 nM): 30%
IC50 ([9]; standard reaction of Table 1, read-out: concentration required to inhibit the standard reaction by 50%): ~0.1 µM
